Measured values reported in patent publication US20250041377A1, “PHARMACEUTICAL USE” (ENLITISA (SHANGHAI) PHARMACEUTICAL CO., LTD., priority 2018, published 2025).
Where a SMILES comes first, the peptide text is derived from it. Where no end group is shown, it is not given here. [ ]: non-standard residue; d: D form. Dopa = N[C@@H](Cc1ccc(O)c(O)c1)C(=O)O; Hyp = O=C(O)[CH]1C[CH](O)CN1; 3Hyp = 3-hydroxyproline

Experiments:
[1] = tested on: carrageenan-induced acute inflammation in subcutaneous air pouch; experiment: Air pouch model, histological scores of skin biopsies; assay type: in vivo, C57BL/6 mice; parameters: Fibroplastic proliferation score: scale not given here; settings: for Fibroplastic proliferation score / Inflammation score / Edema Score: 0.6 mg/mL, 300 μg/mouse injected into air pouch 1 hour before carrageenan; for Inflammation score: HE slices scored 1-3 points; for Edema Score: scored 1-3 points; for Sum: sum of scores, 300 μg/mouse into air pouch
Method: Healthy adult male C57BL/6 mice weighing between 20 and 30 g were supplied by Nanjing Biomedicial Research Institute of Nanjing University (NBRI). Prior to any experiments being conducted, mice were housed under standardized conditions (at a constant temperature of 22±2° C., with alternating 12 hour periods of light and darkness), and were fed on a standard mouse diet with water, for about a week.
General anesthesia was induced using intraperitoneal 3% chloral hydrate (Sinopharm Chemical Reagent Co., Ltd., Shanghai, China; 1 mL/10 g of body weight). The hair of the entire dorsum was shaved and depilated 1 day before sterile air injection.
Air pouches were produced by subcutaneous injection of sterile air (5 mL) into the intrascapular area of the mice. After three days, another injection of air (3 mL) was performed to maintain the pouches. In order to induce acute inflammation, three days after this final injection, animals received an injection of sterile carrageenan solution (CP Kelco, Taixing, Jiangsu Province, China. 1%, 0.5 mL; produced by adding 0.1 g of carrageenan powder into a beaker containing 10 mL of 0.9% saline solution and stirring). Mice were pre-treated with test samples or vehicle 1 hour before and 23 hours after the carrageenan injection into the subcutaneous air pouch. Animals were sacrificed 24 hours after the carrageenan injection.
Skin biopsies were taken from the air pouches. A part of the biopsy was fixed in formalin (produced by adding ultra pure water to 50 mL of a 40% formaldehyde solution (Nanchang Rain Dew Experimental Equipment Co., Ltd., Nanchang, Hubei Province, China) up to a total volume of 500 mL) and analyzed by histological embedding in paraffin wax, sectioning and staining.
After conducting some preliminary experiments to validate the model, an experiment was conducted in which mice were treated by administering test samples or vehicle in accordance with Table 1 below.
All the substances listed in Table 1 were administrated topically by directly injecting into the air pouches.
The histological specimens were analyzed and an inflammation score, an activity score (i.e. the number and density of neutrophils shown in pathological slides, indicating the degree of inflammation and, in the case of open wound and infective diseases, the degree of infection), an edema score and a fibroblast proliferation score were estimated as follows.
The HE stained slices were observed under an optical microscope and were scored (1, 2 or 3 points) according to the perceived inflammation level (in cases showing only a small amount of inflammatory cells scattered in the area-1 point (mild); in cases where many inflammatory cells were observed-2 points (moderate); and, in cases with diffuse infiltration-3 points (severe). A similar scoring system was employed for edema levels (3 points for most severe and 1 point for mild) after overall observation. Scores for neutrophils employed the same methodology as that employed for inflammatory cells.

[2] = Stability in phosphate buffer at different pHs (colour, HPLC peak area, purity); assay type: physicochemical; parameters: key to change of colour: NO means no colour changed was observed; + means a slight colour change is observed; ++ means a significant colour change is observed; settings: for stability (overall result): phosphate buffer pH 5.3, 7.2, 8.1, room temperature then 45° C., 6 days
Method: Stabilities of Compounds A and B (obtained as described in Examples 1 and 3 above) were tested as follows.
10 mg of the compounds were each dissolved in 1 mL of distilled water to make a stock solution with a concentration of 10 mg/mL. Then, 200 μL of the stock solutions were diluted with 20 mM phosphate buffer (PB; Sigma-Aldrich China) with different pHs as indicated in Table 8 below.
All of the samples above were filtered through a 0.22 μm membrane (SLGV033RS; Sigma-Aldrich China) to remove potential bacteria in the solution on a super-clean bench after being prepared.
All the samples above were stored at room temperature and, three days later, were transferred to a 45° C. oven after initial sample analysis by HPLC (Column: Angilent ZORBAX Eclipse XDB-C18 (4.6×250 mm; 5 μm) (SN: USNH008244); buffer: A: 0.1% TFA in Water; B: 0.1% TFA in ACN; gradient: 0-25 minutes: 5%-30% B; 25-30 min: 100% B; flow rate: 1 mL/min; detection wavelength: 220 nm; sample volume: 20 μL).
The stability of the above samples was studied by observing the change of colour (Table 9), HPLC peak areas (Table 10) and purity (Table 11). The pH values for all samples were measured as being stable during the testing period.

[3] = 20 mM phosphate buffer pH 5.3, Day 0
[4] = 20 mM phosphate buffer pH 7.2, Day 0
[5] = 20 mM phosphate buffer pH 8.1, Day 0
[6] = pH 5.3, Day 1, room temperature
[7] = pH 5.3, Day 3 (Transfer to 45° C.)
[8] = pH 7.2, Day 1, room temperature
[9] = pH 7.2, Day 3 (Transfer to 45° C.)
[10] = pH 8.1, Day 1, room temperature
[11] = pH 8.1, Day 3 (Transfer to 45° C.)

CC(N)C(=O)NC(CCCCN)C(=O)N1CCCC1C(=O)NC(CO)C(=O)NC(Cc1ccc(O)cc1)C(=O)N1CC(O)CC1C(=O)N1CC(O)CC1C(=O)NC(C(=O)NC(Cc1ccc(O)cc1)C(=O)NC(CCCCN)C(=O)O)C(C)O (stereo not drawn) [Compound B, Ala-Lys-Pro-Ser-Tyr-Hyp-Hyp-Thr-Tyr-Lys] (H-AKPSY[Hyp][Hyp]TYK-OH; configuration not given here)
Fibroplastic proliferation score [1]: 1.00 | Inflammation score [1]: 1.6 | Edema Score [1]: 1.2 | Sum [1]: 2.8 | HPLC peak area as area % of Day 0's result [2, 3]: 100% | change of colour [2, 3]: NO | purity (HPLC) in stability study [2, 3]: 99.2% | change of colour [2, 4]: NO | purity (HPLC) in stability study [2, 4]: 99.6% | HPLC peak area as area % of Day 0's result [2, 5]: 100% | change of colour [2, 5]: NO | purity (HPLC) in stability study [2, 5]: 99.5% | HPLC peak areas over time ([2]; at pH 7.2 and pH 8.1): decreased significantly | HPLC peak area as area % of Day 0's result [2, 6]: 100.0% | change of colour [2, 6]: NO | purity (HPLC) in stability study [2, 6]: 99.2% | HPLC peak area as area % of Day 0's result [2, 7]: 99.9% | change of colour [2, 7]: NO | purity (HPLC) in stability study [2, 7]: 98.4% | HPLC peak area as area % of Day 0's result ([2]; pH 5.3, Day 6 (45° C.)): 102.4% | change of colour ([2]; pH 5.3, Day 6 (45° C.)): NO | purity (HPLC) in stability study ([2]; pH 5.3, Day 6 (45° C.)): 99.0% | change of colour [2, 8]: NO | purity (HPLC) in stability study [2, 8]: 99.3% | HPLC peak area as area % of Day 0's result [2, 9]: 100% | change of colour [2, 9]: NO | purity (HPLC) in stability study [2, 9]: 98.7% | HPLC peak area as area % of Day 0's result ([2]; pH 7.2, Day 6 (45° C.)): 100.6% | change of colour ([2]; pH 7.2, Day 6 (45° C.)): NO | purity (HPLC) in stability study ([2]; pH 7.2, Day 6 (45° C.)): 98.2% | HPLC peak area as area % of Day 0's result [2, 10]: 98.9% | change of colour [2, 10]: NO | purity (HPLC) in stability study [2, 10]: 99.4% | HPLC peak area as area % of Day 0's result [2, 11]: 99.2% | change of colour [2, 11]: NO | purity (HPLC) in stability study [2, 11]: 98.4% | HPLC peak area as area % of Day 0's result ([2]; pH 8.1, Day 6 (45° C.)): 97.0% | change of colour ([2]; pH 8.1, Day 6 (45° C.)): NO | purity (HPLC) in stability study ([2]; pH 8.1, Day 6 (45° C.)): 96.4% | stability (overall result) [2]: stable at all pH values | HPLC peak areas over time ([2]; three samples, pH 5.3, 7.2, 8.1): almost unchanged

Ala-Lys-Pro-Ser-Tyr-Hyp-Hyp-Thr-DOPA-Lys (AKPSY[3Hyp][Hyp]T[Dopa]K; listed as Mytilus edulis) [Compound A]
Fibroplastic proliferation score [1]: 0.2 | Inflammation score [1]: 1.6 | Edema Score [1]: 1.8 | Sum [1]: 3.4 | HPLC peak area as area % of Day 0's result [2, 3]: 100% | change of colour [2, 3]: NO | purity (HPLC) in stability study [2, 3]: 99.4% | HPLC peak area as area % of Day 0's result [2, 4]: 100% | change of colour [2, 4]: NO | purity (HPLC) in stability study [2, 4]: 98.9% | HPLC peak area as area % of Day 0's result [2, 5]: 100% | change of colour [2, 5]: NO | purity (HPLC) in stability study [2, 5]: 96.3% | oxidation judged by HPLC purity ([2]; at pH 7.2 and pH 8.1): most of Compound A was oxidized | HPLC peak area as area % of Day 0's result [2, 6]: 100.1% | change of colour [2, 6]: NO | purity (HPLC) in stability study [2, 6]: 99.2% | HPLC peak area as area % of Day 0's result [2, 7]: 100.3% | change of colour [2, 7]: NO | purity (HPLC) in stability study [2, 7]: 99.4% | HPLC peak area as area % of Day 0's result ([2]; pH 5.3, Day 6 (45° C.)): 99.6% | change of colour ([2]; pH 5.3, Day 6 (45° C.)): NO | purity (HPLC) in stability study ([2]; pH 5.3, Day 6 (45° C.)): 98.0% | HPLC peak area as area % of Day 0's result [2, 8]: 89.0% | change of colour [2, 8]: + | purity (HPLC) in stability study [2, 8]: 92.1% | HPLC peak area as area % of Day 0's result [2, 9]: 41.7% | change of colour [2, 9]: + | purity (HPLC) in stability study [2, 9]: 94.8% | HPLC peak area as area % of Day 0's result ([2]; pH 7.2, Day 6 (45° C.)): 11.5% | change of colour ([2]; pH 7.2, Day 6 (45° C.)): ++ | purity (HPLC) in stability study ([2]; pH 7.2, Day 6 (45° C.)): 13.8% | HPLC peak area as area % of Day 0's result [2, 10]: 64.8% | change of colour [2, 10]: ++ | purity (HPLC) in stability study [2, 10]: 61.0% | HPLC peak area as area % of Day 0's result [2, 11]: 21.7% | change of colour [2, 11]: ++ | purity (HPLC) in stability study [2, 11]: 52.5% | HPLC peak area as area % of Day 0's result ([2]; pH 8.1, Day 6 (45° C.)): 3.8% | change of colour ([2]; pH 8.1, Day 6 (45° C.)): ++ | purity (HPLC) in stability study ([2]; pH 8.1, Day 6 (45° C.)): 3.9% | stability (overall result) [2]: stable only at pH 5.3
